Key:
MV4-11 = assay: cells; conditions: Homo sapiens, MV4-11, 72 h
Description: Antiproliferative activity against human MV4-11 cells assessed as inhibition of cell growth incubated for 72 hrs by celltiter-glo luminescent cell viability assay

[1] = Cmax in rat plasma at 5 mg/kg, po measured up to 24 hrs by LC-MS/MS analysis; type: ADME, organism-based
[2] = Clearance in rat plasma at 5 mg/kg, po measured up to 24 hrs by LC-MS/MS analysis; type: ADME, organism-based
[3] = Half life in rat plasma at 5 mg/kg, po measured up to 24 hrs by LC-MS/MS analysis; type: ADME, organism-based
[4] = AUClast in rat plasma at 5 mg/kg, po measured up to 24 hrs by LC-MS/MS analysis; type: ADME, organism-based
[5] = Oral bioavailability in rat plasma at 5 mg/kg measured up to 24 hrs by LC-MS/MS analysis; type: ADME, organism-based
hERG (KCNH2) = hERG (KCNH2) (Homo sapiens, UniProt Q12809); assay: Inhibition of human ERG expressed in CHO cells at 30 uM by manual patch clamp assay relative to control; type: toxicity, cell-based; conditions: CHO cells expressing human ERG
MOLM-13 = assay: Antitumor activity against human MOLM-13 cells xenografted in NOD/SCID mouse model assessed as tumor growth inhibition at 50 mg/kg/day, po by caliper analysis relative to control; type: functional; conditions: read-out: TGI
BaF3 [6] = assay: Antiproliferative activity against mouse BaF3 cells harbouring FLT3-ITD-Y842H mutant assessed as inhibition of cell growth incubated for 72 hrs by celltiter-glo luminescent cell viability assay; type: functional, cell-based; conditions: BaF3, 72 h
BaF3 [7] = assay: Antiproliferative activity against mouse BaF3 cells harbouring FLT3-D835V mutant assessed as inhibition of cell growth incubated for 72 hrs by celltiter-glo luminescent cell viability assay; type: functional, cell-based; conditions: BaF3, 72 h
BaF3 [8] = assay: Antiproliferative activity against mouse BaF3 cells harbouring FLT3-ITD-Y842R mutant assessed as inhibition of cell growth incubated for 72 hrs by celltiter-glo luminescent cell viability assay; type: functional, cell-based; conditions: BaF3, 72 h
BaF3 [9] = assay: Antiproliferative activity against mouse BaF3 cells harbouring FLT3-ITD-D835Y mutant assessed as inhibition of cell growth incubated for 72 hrs by celltiter-glo luminescent cell viability assay; type: functional, cell-based; conditions: BaF3, 72 h
BaF3 [10] = assay: cells; conditions: Mus musculus, BaF3, 72 h
BaF3 [11] = assay: cells; conditions: Mus musculus, BaF3, 72 h; remark: listed apart in the source
Description: Antiproliferative activity against mouse BaF3 cells harbouring FLT3-D83HY mutant assessed as inhibition of cell growth incubated for 72 hrs by celltiter-glo luminescent cell viability assay

BaF3 [12] = assay: Antiproliferative activity against mouse BaF3 cells harbouring FLT3-ITD-D835I mutant assessed as inhibition of cell growth incubated for 72 hrs by celltiter-glo luminescent cell viability assay; type: functional, cell-based; conditions: BaF3, 72 h
BaF3 [13] = assay: Antiproliferative activity against wild type mouse BaF3 cells assessed as inhibition of cell growth incubated for 72 hrs by celltiter-glo luminescent cell viability assay; type: functional, cell-based; conditions: BaF3, 72 h
BaF3 [14] = assay: Antiproliferative activity against mouse BaF3 cells harbouring FLT3-D835Y mutant assessed as inhibition of cell growth incubated for 72 hrs by celltiter-glo luminescent cell viability assay; type: functional, cell-based; conditions: BaF3, 72 h
BaF3 [15] = assay: Antiproliferative activity against mouse BaF3 cells harbouring FLT3-ITD-F691I mutant assessed as inhibition of cell growth incubated for 72 hrs by celltiter-glo luminescent cell viability assay; type: functional, cell-based; conditions: BaF3, 72 h
[16] = Antitumor activity against human […] cells harbouring FLT3-ITD xenografted in NOD/SCID mouse model assessed as tumor regression rate at 20 mg/kg/day, po measured for 8 days by caliper analysis relative to control; type: functional, MV4-11; conditions: time 8 day
BaF3 [17] = assay: Antiproliferative activity against mouse BaF3 cells harbouring FLT3-ITD-D835V mutant assessed as inhibition of cell growth incubated for 72 hrs by celltiter-glo luminescent cell viability assay; type: functional, cell-based; conditions: BaF3, 72 h
BaF3 [18] = assay: Antiproliferative activity against mouse BaF3 cells harbouring FLT3-ITD assessed as inhibition of cell growth incubated for 72 hrs by celltiter-glo luminescent cell viability assay; type: functional, cell-based; conditions: BaF3, 72 h
BaF3 [19] = assay: cells; conditions: Mus musculus, BaF3, 72 h; remark: listed apart in the source
BaF3 [20] = assay: cells; conditions: Mus musculus, BaF3, 72 h; remark: listed apart in the source
BaF3 [21] = assay: cells; conditions: Mus musculus, BaF3, 72 h; remark: listed apart in the source
BaF3 [22] = assay: Antiproliferative activity against mouse BaF3 cells harbouring FLT3-ITD-N676D mutant assessed as inhibition of cell growth incubated for 72 hrs by celltiter-glo luminescent cell viability assay; type: functional, cell-based; conditions: BaF3, 72 h
BaF3 [23] = assay: cells; conditions: Mus musculus, BaF3, 72 h; remark: listed apart in the source
BaF3 [24] = assay: Antiproliferative activity against mouse BaF3 cells harbouring FLT3-ITD-F691L mutant assessed as inhibition of cell growth incubated for 72 hrs by celltiter-glo luminescent cell viability assay; type: functional, cell-based; conditions: BaF3, 72 h

hERG (KCNH2), sequence (Q12809 whole entry): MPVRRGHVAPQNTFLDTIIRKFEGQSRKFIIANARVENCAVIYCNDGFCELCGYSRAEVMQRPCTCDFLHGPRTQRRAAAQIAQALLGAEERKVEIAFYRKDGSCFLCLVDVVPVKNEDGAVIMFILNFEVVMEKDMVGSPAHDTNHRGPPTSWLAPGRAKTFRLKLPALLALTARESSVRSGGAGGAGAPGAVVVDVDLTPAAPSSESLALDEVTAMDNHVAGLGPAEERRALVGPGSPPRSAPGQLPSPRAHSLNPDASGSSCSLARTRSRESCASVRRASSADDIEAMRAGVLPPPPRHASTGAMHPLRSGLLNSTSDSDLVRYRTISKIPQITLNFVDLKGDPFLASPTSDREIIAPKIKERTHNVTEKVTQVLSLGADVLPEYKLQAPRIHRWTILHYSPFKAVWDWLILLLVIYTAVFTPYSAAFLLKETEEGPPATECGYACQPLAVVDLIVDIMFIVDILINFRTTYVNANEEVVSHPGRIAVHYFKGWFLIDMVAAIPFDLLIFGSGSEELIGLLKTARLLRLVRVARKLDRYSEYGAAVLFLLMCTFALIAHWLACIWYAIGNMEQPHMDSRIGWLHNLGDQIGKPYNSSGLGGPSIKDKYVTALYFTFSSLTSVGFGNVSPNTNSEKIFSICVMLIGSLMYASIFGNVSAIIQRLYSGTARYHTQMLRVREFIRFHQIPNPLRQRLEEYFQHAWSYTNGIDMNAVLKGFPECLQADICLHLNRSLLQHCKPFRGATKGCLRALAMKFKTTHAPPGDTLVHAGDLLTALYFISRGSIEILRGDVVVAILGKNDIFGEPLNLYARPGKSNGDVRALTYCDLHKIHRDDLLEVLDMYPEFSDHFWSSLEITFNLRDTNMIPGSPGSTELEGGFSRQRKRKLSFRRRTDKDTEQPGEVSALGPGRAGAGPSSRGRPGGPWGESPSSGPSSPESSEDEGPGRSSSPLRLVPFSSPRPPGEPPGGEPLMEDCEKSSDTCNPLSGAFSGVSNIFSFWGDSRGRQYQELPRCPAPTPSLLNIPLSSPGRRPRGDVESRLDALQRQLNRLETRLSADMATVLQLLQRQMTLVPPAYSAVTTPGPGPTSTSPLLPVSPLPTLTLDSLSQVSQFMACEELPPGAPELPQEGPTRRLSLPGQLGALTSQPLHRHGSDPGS

| SMILES | IC50 (MV4-11) | Cmax [1] | CL/F [2] | half-life [3] | AUC(0-t) at 24 h [4] | bioavailability [5] | further results |
| --- | --- | --- | --- | --- | --- | --- | --- |
| CC(C)(C)c1cc(NC(=O)Nc2ccc(C#Cc3ccc(OCCCN4CCOCC4)cc3)cc2F)no1 | 4.8 nM | – | – | – | – | – | – |
| CN1CCN(CCOc2ccc(C#Cc3ccc(NC(=O)Nc4cc(C(C)(C)C)on4)cc3)cc2)CC1 | 1.6 nM | 133 ng/mL | 68.2 mL/min/kg | 2.06 h | 534 ng·h/mL | 48.4% | – |
| CC(C)(C)c1cc(NC(=O)Nc2ccc(C#Cc3ccc(OCCCN4CCOCC4)c(Cl)c3)cc2)no1 | 9.8 nM | – | – | – | – | – | – |
| CC(C)(C)c1cc(NC(=O)Nc2ccc(C#Cc3ccc(OCCN4C[C@@H]5OCCO[C@@H]5C4)cc3)cc2)no1 | 1.1 nM | 862 ng/mL | 7.78 mL/min/kg | 3.9 h | 6770 ng·h/mL | 63.6% | – |
| CC(C)(C)c1cc(NC(=O)Nc2ccc(C#Cc3ccc(OCCCN4CCOCC4)cc3Cl)cc2)no1 | 426 nM | – | – | – | – | – | – |
| CC(C)(C)c1cc(NC(=O)Nc2ccc(C#Cc3ccc(OCCCN4CCOCC4)c(F)c3)cc2)no1 | 4.6 nM | – | – | – | – | – | – |
| CC(C)(C)c1cc(NC(=O)Nc2ccc(C#Cc3ccc(OCCCN4CCOCC4)c(O)c3)cc2)no1 | 0.9 nM | – | – | – | – | – | – |
| COc1cc(C#Cc2ccc(OCCCN3CCOCC3)cc2)ccc1NC(=O)Nc1cc(C(C)(C)C)on1 | 551 nM | – | – | – | – | – | – |
| CC(C)(C)c1cc(NC(=O)Nc2ccc(C#Cc3ccc(OCCCN4CCOCC4)c(C(F)(F)F)c3)cc2)no1 | 17.7 nM | – | – | – | – | – | – |
| CN(C)C1CCN(CCOc2ccc(C#Cc3ccc(NC(=O)Nc4cc(C(C)(C)C)on4)cc3)cc2)CC1 | 34.4 nM | – | – | – | – | – | – |
| CC(C)(C)c1cc(NC(=O)Nc2ccc(C#Cc3ccc(OCCCN4CCOCC4)cc3)cc2C#N)no1 | > 1000 nM | – | – | – | – | – | – |
| CC(C)(C)c1cc(NC(=O)Nc2ccc(C#Cc3ccc(OCCCN4CCOCC4)cc3F)cc2)no1 | 5.2 nM | 1370 ng/mL | 4.83 mL/min/kg | 5.86 h | 11300 ng·h/mL | 69.3% | inhibition at 30 µM (hERG (KCNH2)): 36.3% |
| CC(C)(C)c1cc(NC(=O)Nc2ccc(C#Cc3cnn4c(OCCCN5CCOCC5)ccnc34)cc2)no1 | 1.9 nM | – | – | – | – | – | – |
| CC(C)(C)c1cc(NC(=O)Nc2ccc(C#Cc3ccc(OCCCN4C[C@@H]5OCCO[C@@H]5C4)cc3)cc2)no1 | 3.1 nM | – | – | – | – | – | – |
| CC(C)(C)c1cc(NC(=O)Nc2ccc(C#Cc3ccc(OCCN4CCOCC4)cc3)cc2)no1 | 1.4 nM | 522 ng/mL | 22.8 mL/min/kg | 4.84 h | 1790 ng·h/mL | 49.2% | – |
| CC(C)(C)c1cc(NC(=O)Nc2ccc(C#Cc3ccc(OCCCN4CCOCC4)cc3)nc2)no1 | > 1000 nM | – | – | – | – | – | – |
| COc1cc(C#Cc2ccc(NC(=O)Nc3cc(C(C)(C)C)on3)cc2)ccc1OCCCN1CCOCC1 | 0.8 nM | 194 ng/mL | 26.8 mL/min/kg | 3.55 h | 1270 ng·h/mL | 40.8% | – |
| CC(C)(C)c1cc(NC(=O)Nc2ccc(C#Cc3ccc(OCCCN4CCOCC4)cc3O)cc2)no1 | 25.5 nM | – | – | – | – | – | – |
| Nc1ccn([C@@H]2O[C@H](CO)[C@@H](O)[C@@H]2O)c(=O)n1 [CYTARABINE] | – | – | – | – | – | – | inhibition in vivo at 50 mg/kg/day (MOLM-13): 36% |
| CC(C)(C)c1cc(NC(=O)Nc2ccc(-c3cn4c(n3)sc3cc(OCCN5CCOCC5)ccc34)cc2)no1 [QUIZARTINIB] | 0.9 nM | 741 ng/mL | 7.33 mL/min/kg | 5.22 h | 6320 ng·h/mL | 57.6% | IC50 (BaF3 [6]): 28.8 nM; IC50 (BaF3 [7]): 28.7 nM; IC50 (BaF3 [8]): 20.8 nM; IC50 (BaF3 [9]): 36 nM; IC50 (BaF3 [10]): 73.1 nM; IC50 (BaF3 [11]): 7.1 nM; IC50 (BaF3 [12]): 280 nM; IC50 (BaF3 [13]): > 1000 nM; IC50 (BaF3 [14]): 3.6 nM; IC50 (BaF3 [15]): 136 nM; Activity [16]: 88.6%; IC50 (BaF3 [17]): 112 nM; IC50 (BaF3 [18]): 0.8 nM; IC50 (BaF3 [19]): 1.6 nM; IC50 (BaF3 [20]): 4.1 nM; IC50 (BaF3 [21]): 3.1 nM; IC50 (BaF3 [22]): 5.5 nM; IC50 (BaF3 [23]): 23.2 nM; IC50 (BaF3 [24]): 102 nM |
| CN(C)C1CCN(CCCOc2ccc(C#Cc3ccc(NC(=O)Nc4cc(C(C)(C)C)on4)cc3)cc2)CC1 | 8 nM | – | – | – | – | – | – |
| CN1CCN(CCCOc2ccc(C#Cc3ccc(NC(=O)Nc4cc(C(C)(C)C)on4)cc3)cc2)CC1 | 2.4 nM | 100 ng/mL | 44.8 mL/min/kg | 5.15 h | 756 ng·h/mL | 42% | – |
| CC(C)(C)c1cc(NC(=O)Nc2ccc(C#Cc3ccc(OCCCN4CCC5(COC5)C4)cc3)cc2)no1 | 13.8 nM | – | – | – | – | – | – |

Reference: ChEMBL document CHEMBL6134864, “Discovery of FLT3-ITD Inhibitor Clifutinib: A Novel Biphenylacetylene Urea Derivative in Clinical Trials for the Treatment of Relapsed/Refractory FLT3-ITD+ Acute Myeloid Leukemia” (J Med Chem, 2025)
